# Like-named read-outs stand apart in the source and are kept apart here.
# What was measured:
# H1299 cells = assay: CCK-8 cell viability assay, H1299; format: cell-based
# Procedure: Referring now to FIG. 13A. Cell Viability and Apoptosis of Ovarian and p53 null Lung Cancer Cell Lines. A) Ovarian cancer cell line A2780 and the p53 null lung cancer cell line, H1299, were treated with log dosing of MCI13E and viability analyzed via CCK-8 metabolic assay as described in Methods. Data is presented as cell survival which was determined as a percent of the untreated control cells and represents the average and standard deviation of triplicate experiments Referring now to FIG. 13B.
# Ovarian cancer cell line, A2780, cells are difficult to use for crystal violet analysis due to their enhanced sensitivity to treatment. Therefore, the cell counting kit-8 (CCK) was used to determine the viability of A2780 cells in addition to the p53 null lung cancer cell line H1299, following a 24 hour treatment with log dosing of SMI. Cells were plated (1×10^5) in 24-well dishes and treated with inhibitor after 24 hours. After treatment media was aspirated and 1 ml of DMEM was added in addition to 100 μL of CCK-8 solution. Absorbance at 450 nm was measured over 4 hours in a SpectraMax M5 plate reader and values are presented as the percent untreated control at the two hour time point for three separate plate replicates each containing three assays per plate.
# SpPot1(DBD) = molecular target: T1, SpPot1(DBD) (Schizosaccharomyces pombe, UniProt O13988); assay: SpPot1(DBD) ssDNA binding; conditions: protein pre-incubated with SMI
# T1 construct: the Schizosaccharomyces pombe Pot1(DBD) domain (11) were studied
# T1 sequence (O13988 1-389 limits assumed): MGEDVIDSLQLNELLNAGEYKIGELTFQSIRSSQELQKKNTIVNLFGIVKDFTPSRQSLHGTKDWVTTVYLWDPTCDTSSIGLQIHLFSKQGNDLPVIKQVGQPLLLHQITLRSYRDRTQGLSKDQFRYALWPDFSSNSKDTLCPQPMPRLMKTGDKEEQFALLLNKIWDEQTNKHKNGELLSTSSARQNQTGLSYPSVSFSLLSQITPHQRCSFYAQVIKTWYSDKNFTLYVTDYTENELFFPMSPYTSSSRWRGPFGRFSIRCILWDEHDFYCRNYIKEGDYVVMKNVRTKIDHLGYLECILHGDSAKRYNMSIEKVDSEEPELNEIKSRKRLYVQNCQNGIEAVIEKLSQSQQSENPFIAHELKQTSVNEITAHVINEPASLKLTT
# Procedure: In order to study the specificity of the CheSS19, and MCI13E/F compounds, their effects on two ssDNA binding proteins which use OB-folds for recognition and binding of ssDNA, E. coli SSB (6) and the Schizosaccharomyces pombe Pot1(DBD) domain (11) were studied. The EcSSB protein is a non-sequence-specific ssDNA binding protein, whereas the SpPot1(DBD) protein is a telomere-specific, ssDNA binding protein. In these experiments, protein was pre-incubated with the SMIs, as was done for the RPA experiments, prior to addition of radiolabeled ssDNA to the reactions.
# A549 cells = assay: Crystal violet cell viability assay, A549; format: cell-based; conditions: 48 hours
# Procedure: Referring now to FIG. 11A. Gel showing effect of MCI13E on DNA-RPA binding. […] Cytotoxicity was analyzed via crystal violet analysis as described in “methods” 48 hours following MCI13E treatment. Data represent the average and standard deviation of four replicate experiments with each replicate containing triplicate determinations and the circles represent data from H460 cells and squares A549 cells. Referring now to FIG. 11C. Graph of MCI13E induced death via apoptosis in NSCLC cell lines. Cell were treated with the indicated concentrations of MCI13E for 48 hours and analyzed for the induction of apoptosis via Annexin V/PI staining Referring now to FIG. 11D. Graph of cell survival as a function of [MCI1EC]. Percent survival was calculated for each cell line using untreated cells as a control. Data presented are the average and standard deviation from four replicate experiments. […]
# Cell Viability Assays—A crystal violet cell viability assay was performed to determine cytotoxicity of SMI. […] Stained cells were resuspended in 500 μl DMSO containing 1% SDS and absorbance was measured at 590 nm in a SpectraMax M5 plate reader (Molecular Devices, Sunnyvale, Calif.) and analyzed using SoftMax Pro 5.2. Percent viability is taken as an absorbance percentage against control untreated cells. […]
# p21 = assay: Quantitative real-time PCR of p21 mRNA; format: cell-based; conditions: A549, versus untreated control
# Procedure: Real-Time PCR—A549 cells were plated in 10 cm dishes at 1.5×10^6, allowed to adhere, and treated for 24-48 hours with cisplatin or SMIs (5 μM). Referring now to FIG. 16B, Western blot of cells treated sequentially. For sequential treatment, A549 cells were exposed to cisplatin for 24 hours followed by the addition of SMIs for another 24 hours as above. Referring now to FIG. 16A, A549 cells were treated sequentially or concurrently with cisplatin (5 μM) and MCI13E or MCI13F for 24 total hours. Lysates were probed for p53-ser15-phosphorylation or phosphorylated-ATM. GAPDH was probed as a loading control. Concurrently treated cells were incubated simultaneously with both cisplatin and MCIs for 24 hours. RNA was extracted using RNeasy minikit (Qiagen, Germantown, Md.) per manufacturer's protocol. cDNA was generated using Applied Biosystem's (ABI) High Capacity RNA-to-cDNA kit. Validated gene primer/probe sets, also from ABI, were used for Quantitative Real Time-PCR. ABI's ΔΔCT Relative Quantification methodology was used for the analyses (applied Biosystems). Data were normalized to the housekeeping gene GAPDH and calibrated to the mock treated samples. Results presented are the average of two separate cell treatments/RNA isolations with duplicate Taqman Assays per RNA sample set.
# Referring now to FIG. 15A. Plot of Quantitative Real Time PCR analyses of mRNA expression changes of A549 cells treated with MCI13E, MCI13F and Cisplatin. Data represents the average of four separate Q-RT PCR Assays. Genes of interest were normalized to GAPDH transcript levels, and are presented as fold changes relative to untreated cell samples. Cisplatin treatment increases transcription of DDB2 (A). Referring now to FIG. 15B. Bar graph of P21/GAPDH measured in cells subjected to different treatment schemes. Referring now to FIG. 15C. Bar graph of XPC/GAPDH measured under different treatment regimes XPC Concurrent MCI/Cisplatin treated cells show a decrease in gene transcription when compared to cells treated with Cisplatin alone (24 hour).
# [1] = H1299, 24 hours after exposing the cells, read-out: IC50, cell viability
# [2] = H1299, read-out: IC50, cell viability (text to Table 3)
Compound,"IC50 (H1299 cells; H1299 (p53 null), 24 hours of treatment, CCK-8, read-out: IC50, cell viability)",IC50 (H1299 cells; [1]),IC50 (H1299 cells; [2]),Effect on SpPot1(DBD) ssDNA binding (SpPot1(DBD)),IC50 (A549 cells),"p21 mRNA expression, single agent (p21)"
"CC1(C)C2CCC1(C)C(OC(=O)CBr)C2 (racemic) [MCI13E, (+/−)-Isobornyl bromoacetate]",~4000 nM,500 nM,~500 nM,no significant inhibition,~5000 nM,only slightly increases the expression level of p21
"CC1(C)C2CCC1(C)C(OC(=O)CI)C2 (racemic) [MCI13F, (+/−)-Isobornyl iodoacetate]",–,500 nM,~500 nM,no significant inhibition,~5000 nM,only slightly increases the expression level of p21
